Bounds are passed on as bounds.

A word on the IC50: it is the point on the concentration scale where inhibition reaches its midpoint. Lower therefore signals greater potency. As usually defined, the melting point is the temperature, or range, at which the solid turns liquid.

One data set deals with T1, Arginase II (Mus musculus, UniProt O08691).
T1 construct: Tissue lysates of kidney were prepared using lysis buffer; from tissue; host or cells: kidney of C57BL/6 mice
T1 sequence (O08691 23-354): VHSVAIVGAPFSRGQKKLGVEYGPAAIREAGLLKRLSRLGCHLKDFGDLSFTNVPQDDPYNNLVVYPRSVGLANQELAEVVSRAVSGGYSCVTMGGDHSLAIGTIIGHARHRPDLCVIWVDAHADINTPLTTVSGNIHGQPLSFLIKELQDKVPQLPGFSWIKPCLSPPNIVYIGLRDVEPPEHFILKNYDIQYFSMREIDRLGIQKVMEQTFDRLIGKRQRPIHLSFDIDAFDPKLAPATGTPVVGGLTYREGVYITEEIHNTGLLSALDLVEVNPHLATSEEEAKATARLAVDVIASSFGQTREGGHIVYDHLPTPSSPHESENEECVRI
Put plainly: Arginase II inhibitory activity, enzyme solution from mouse kidney lysate, urea determined at 550 nm. It counts as biochemical. The settings on record: kidney lysates of C57BL/6 mice; 50 % inhibition relative to vehicle control; average of three repeated experiments. On the procedure: Arginase II solution was prepared from kidney lysates of anesthetized C57BL/6 mice (White et al. [2006]). Tissue lysates of kidney were prepared using lysis buffer (50 mM Tris–HCl, pH7.5, 0.1 mM EDTA and protease inhibitors) by homogenization at 4 °C followed by centrifugation for 20 min at 14,000×g at 4 °C. Briefly, […] lysates were added to Tris–HCl. The hydrolysis reaction of L-arginine by Arg was performed by incubating the mixture containing activated Arg and was stopped by adding acid solution. For calorimetric determination of urea, α-isonitrosopropiophenone was added, and the mixture was heated at 100 °C for 45 min. After placing the sample in the dark for 10 min at room temperature, the urea concentration was determined spectrophotometrically by the absorbance at 550 nm (White et al. [2006]).
On to `COc1cc(O)c2c(c1OC)OC(c1cc(O)ccc1OC1OC(CO)C(O)C(O)C1O)CC2=O` [Compound 8, (2S)-5,5′-dihydroxy-7,8-dimethoxyflavanone-2′-O-β-D-glucopyranoside], for which the concentration for half-maximal inhibition (IC50) was above 200 µM.

`OC[C@H]1O[C@@H](Oc2cc(/C=C/c3cc(O)cc(O)c3)ccc2O)[C@H](O)[C@@H](O)[C@@H]1O` [PG, piceatannol-3′-O-β-D-glucopyranoside, reference compound] registered an IC50 of 1 ± 0.1 µM.

Turning to `COc1ccc([C@H]2C[C@H](OC)c3c(OC)c(OC)c(OC)c(OC)c3O2)cc1` [Compound 1, (2R,4S)-4,5,6,7,8,4′-hexamethoxylflavan], the 50% inhibitory concentration (IC50) was above 200 µM.

In the case of `COc1c(O)cc(O)c2c(=O)cc(-c3ccccc3)oc12` [Compound 2, wogonin], the IC50 was above 200 µM.

`O=c1cc(-c2ccc(O)cc2)oc2cc(O)cc(O)c12` [Compound 4, apigenin] showed a 50% inhibitory concentration (IC50) above 200 µM.

Consider `O=C1C[C@@H](c2ccc(O)cc2)Oc2cc(O)cc(O)c21` [Compound 6, naringenin], for which the IC50 is above 200 µM.

For the compound `COc1ccccc1[C@@H]1CC(=O)c2c(O)cc(O)c(OC)c2O1` [Compound 3, (2S)-5,7-dihydroxy-8,2′-dimethoxyflavanone], the 50% inhibitory concentration (IC50) came out at 25.1 ± 2.6 µM.

The compound `COc1cc(O)c2c(c1OC)O[C@H](c1cc(O)ccc1O)CC2=O` [Compound 5, (2S)-5,2′,5′-trihydroxy-7,8-dimethoxyflavanone] displayed a half-inhibitory concentration (IC50) of 11.6 ± 1.2 µM.

Consider `O=C1C[C@@H](c2ccc(O)cc2)Oc2cc(O)cc(O[C@@H]3O[C@H](CO)[C@@H](O)[C@H](O)[C@H]3O)c21` [Compound 7, naringenin-5-O-β-D-glucopyranoside], for which the IC50 was above 200 µM.

Test system in a further data set: not given
Test: not given
Settings: not given
`COc1ccc([C@H]2C[C@H](OC)c3c(OC)c(OC)c(OC)c(OC)c3O2)cc1` [Compound 1, (2R,4S)-4,5,6,7,8,4′-hexamethoxylflavan] displayed a melting point of 218 to 220 °C.

These data come from paper PMC3731522, “Arginase II inhibitory activity of flavonoid compounds from Scutellaria indica” (Archives of Pharmacal Research, 2013).
